The results in this text go back to ChEMBL document CHEMBL3872249, “Computer design, synthesis, and bioactivity analyses of drugs like fingolimod used in the treatment of multiple sclerosis” (Bioorg Med Chem, 2017).

Common to all, as to assay type: functional
For assay [1], the system named is U-118-MG. The assay is described as follows: Effect on ITGB2 mRNA expression in human U118MG cells at EC10 by qPCR method relative to beta-actin. For orientation: Quantitative PCR measures a nucleic acid by following its amplification.
In assay [2] the test system is U-118-MG. The assay is described as follows: Effect on MAL mRNA expression in human U118MG cells at EC10 by qPCR method relative to beta-actin.
For assay [3], the system named is U-118-MG. The assay is described as follows: Effect on STAT3 mRNA expression in human U118MG cells at EC10 by qPCR method relative to beta-actin.
Assay [4] has as its system SH-SY5Y. The assay is described as follows: Effect on GRM5 mRNA expression in human SH-SY5Y cells at EC10 by qPCR method relative to beta-actin.
Assay [5] deals with SH-SY5Y. The assay is described as follows: Effect on HIF1A mRNA expression in human SH-SY5Y cells at EC10 by qPCR method relative to beta-actin.
Assay [6] concerns U-118-MG. The assay is described as follows: Effect on ADRB2 mRNA expression in human U118MG cells at EC10 by qPCR method relative to beta-actin.
For assay [7], the system named is U-118-MG. The assay is described as follows: Effect on PTGDR mRNA expression in human U118MG cells at EC10 by qPCR method relative to beta-actin.
Assay [8] has as its system SH-SY5Y. The assay is described as follows: Effect on AGT mRNA expression in human SH-SY5Y cells at EC10 by qPCR method relative to beta-actin.
In assay [9] the test system is SK-N-SH. The assay is described as follows: Effect on ITGB2 mRNA expression in human SK-N-SH cells at EC10 by qPCR method relative to beta-actin.
For assay [10], the system named is SK-N-SH. The assay is described as follows: Effect on GRM5 mRNA expression in human SK-N-SH cells at EC10 by qPCR method relative to beta-actin.
Assay [11] deals with SH-SY5Y. The assay is described as follows: Effect on CYP19A1 mRNA expression in human SH-SY5Y cells at EC10 by qPCR method relative to beta-actin.
The test system of assay [12] is SH-SY5Y. The assay is described as follows: Effect on MAL mRNA expression in human SH-SY5Y cells at EC10 by qPCR method relative to beta-actin.
In assay [13] the test system is SH-SY5Y. The assay is described as follows: Effect on HDAC1 mRNA expression in human SH-SY5Y cells at EC10 by qPCR method relative to beta-actin.
Assay [14] deals with SH-SY5Y. The assay is described as follows: Effect on PTGDR mRNA expression in human SH-SY5Y cells at EC10 by qPCR method relative to beta-actin.
Assay [15] has as its system SH-SY5Y. The assay is described as follows: Effect on CD44 mRNA expression in human SH-SY5Y cells at EC10 by qPCR method relative to beta-actin.
Assay [16] has as its system SH-SY5Y. The assay is described as follows: Effect on ITGB2 mRNA expression in human SH-SY5Y cells at EC10 by qPCR method relative to beta-actin.
Assay [17] relates to U-118-MG. The assay is described as follows: Effect on HIF1A mRNA expression in human U118MG cells at EC10 by qPCR method relative to beta-actin.
The subject of assay [18] is SK-N-SH. The assay is described as follows: Effect on IL18 mRNA expression in human SK-N-SH cells at EC10 by qPCR method relative to beta-actin.
For assay [19], the system named is SH-SY5Y. The assay is described as follows: Effect on LTA mRNA expression in human SH-SY5Y cells at EC10 by qPCR method relative to beta-actin.
Assay [20] relates to U-118-MG. The assay is described as follows: Effect on CD4 mRNA expression in human U118MG cells at EC10 by qPCR method relative to beta-actin.
The subject of assay [21] is U-118-MG. The assay is described as follows: Effect on IL13 mRNA expression in human U118MG cells at EC10 by qPCR method relative to beta-actin.
Assay [22] has as its system U-118-MG. The assay is described as follows: Effect on CRHR1 mRNA expression in human U118MG cells at EC10 by qPCR method relative to beta-actin.
Assay [23] relates to SH-SY5Y. The assay is described as follows: Effect on IL18 mRNA expression in human SH-SY5Y cells at EC10 by qPCR method relative to beta-actin.
Assay [24] has as its system SK-N-SH. The assay is described as follows: Effect on IL13 mRNA expression in human SK-N-SH cells at EC10 by qPCR method relative to beta-actin.
Assay [25] has as its system U-118-MG. The assay is described as follows: Effect on EDN1 mRNA expression in human U118MG cells at EC10 by qPCR method relative to beta-actin.
The test system of assay [26] is SK-N-SH. The assay is described as follows: Effect on CXCL11 mRNA expression in human SK-N-SH cells at EC10 by qPCR method relative to beta-actin.
In assay [27] the test system is U-118-MG. The assay is described as follows: Effect on VEGFA mRNA expression in human U118MG cells at EC10 by qPCR method relative to beta-actin.
The test system of assay [28] is SH-SY5Y. The assay is described as follows: Effect on MAPK1 mRNA expression in human SH-SY5Y cells at EC10 by qPCR method relative to beta-actin.
Assay [29] has as its system SH-SY5Y. The assay is described as follows: Effect on TNFRSF1B mRNA expression in human SH-SY5Y cells at EC10 by qPCR method relative to beta-actin.
Assay [30] has as its system U-118-MG. The assay is described as follows: Effect on S1PR3 mRNA expression in human U118MG cells at EC10 by qPCR method relative to beta-actin.
Assay [31] deals with U-118-MG. The assay is described as follows: Effect on CCL5 mRNA expression in human U118MG cells at EC10 by qPCR method relative to beta-actin.
The subject of assay [32] is SK-N-SH. The assay is described as follows: Effect on CXCL9 mRNA expression in human SK-N-SH cells at EC10 by qPCR method relative to beta-actin.
The test system of assay [33] is U-118-MG. The assay is described as follows: Effect on GRM4 mRNA expression in human U118MG cells at EC10 by qPCR method relative to beta-actin.
Assay [34] relates to SK-N-SH. The assay is described as follows: Effect on HLA-DRB1 mRNA expression in human SK-N-SH cells at EC10 by qPCR method relative to beta-actin.
For assay [35], the system named is SK-N-SH. The assay is described as follows: Effect on SOD1 mRNA expression in human SK-N-SH cells at EC10 by qPCR method relative to beta-actin.
Assay [36] has as its system SK-N-SH. The assay is described as follows: Effect on CCL5 mRNA expression in human SK-N-SH cells at EC10 by qPCR method relative to beta-actin.
For assay [37], the system named is SH-SY5Y. The assay is described as follows: Effect on CCL5 mRNA expression in human SH-SY5Y cells at EC10 by qPCR method relative to beta-actin.
Assay [38] deals with U-118-MG. The assay is described as follows: Effect on SOD1 mRNA expression in human U118MG cells at EC10 by qPCR method relative to beta-actin.
The subject of assay [39] is U-118-MG. The assay is described as follows: Effect on PLP1 mRNA expression in human U118MG cells at EC10 by qPCR method relative to beta-actin.
Assay [40] deals with SK-N-SH. The assay is described as follows: Effect on TNFRSF1B mRNA expression in human SK-N-SH cells at EC10 by qPCR method relative to beta-actin.
For assay [41], the system named is SK-N-SH. The assay is described as follows: Effect on PLP1 mRNA expression in human SK-N-SH cells at EC10 by qPCR method relative to beta-actin.
The test system of assay [42] is SH-SY5Y. The assay is described as follows: Effect on TGFB2 mRNA expression in human SH-SY5Y cells at EC10 by qPCR method relative to beta-actin.
Assay [43] has as its system SH-SY5Y. The assay is described as follows: Effect on CXCL9 mRNA expression in human SH-SY5Y cells at EC10 by qPCR method relative to beta-actin.
Assay [44] relates to SK-N-SH. The assay is described as follows: Effect on TGFB1 mRNA expression in human SK-N-SH cells at EC10 by qPCR method relative to beta-actin.

SMILES strings stand for the structures.

`CCCCCCCCc1ccc(CCC(N)(CO)CO)cc1` [FINGOLIMOD]: the “fold change (FC)” value is listed as -4.0523 in [1]; -3.8671 in [2]; -2.5624 in assay [3]; -3.3753 in assay [4]; -8.3109 in assay [5]; -4.9171 in [6]. The “fold change (FC)” value in [7] is -4.4856; in assay [8], 3.9041; in assay [9] it was -6.3947; in [10], -5.4523; in assay [11], -5.8869; in assay [12] it was -5.5117. The “fold change (FC)” value is -15.9446 in [13]; -4.9331 in [14]; -4.0629 in [15]; -3.9655 in assay [16]; -3.2716 in [17].
Consider `CCCCCCCCn1nnnc1CCC(N)(CO)CO.Cl`, for which the “fold change (FC)” value in assay [18] was -5.1137; in assay [19] it was -2.54; in [20], -3.5323; in [21], -5.9963; in assay [22], 4.2936; in assay [23], -3.9685. In addition, the “fold change (FC)” value in [24] is -6.6894; in assay [25] it was 5.5464; in assay [26] it was -3.5538; in assay [27], -4.4402; in assay [28] it was -2.8875.
As to `CCCCCCCCn1nnnc1-c1ccc(C(O)CC(N)(CO)CO)cc1.Cl` (centres undefined), the “fold change (FC)” value in assay [29] is -2.9117; in assay [30], -4.6278; in [31] it was -5.3124; in assay [32], -4.8484; in assay [33] it was -5.0773; in [34], -4.1339. Further, the “fold change (FC)” value is -3.3929 in assay [35]; -4.1626 in assay [36]; -3.3855 in [37]; 5.2803 in [38]; 3.4958 in assay [39]; -5.5404 in [40]. Also, the “fold change (FC)” value in assay [41] is given as 4.9417; in [42], -2.8716; in assay [43] it was -3.0249; in [44] it was -5.3267.
